Data from ChEMBL document CHEMBL5321275, “Discovery, Optimization, and Evaluation of Novel N-(Benzimidazol-5-yl)-1,3,4-thiadiazol-2-amine Analogues as Potent STAT3 Inhibitors for Cancer Treatment” (J Med Chem, 2023).
Converted amounts (≈) assume the structure as drawn.

What was measured:
[1] = Metabolic stability in mouse liver microsomes assessed as half life in presence of NADPH/UDPGA; assay type: ADME, Microsome
[2] = Metabolic stability in mouse liver microsomes assessed as intrinsic clearance in presence of NADPH/UDPGA; assay type: ADME, Microsome; settings: read-out: CLH
[3] = system: HEK-Blue IL-6; assay: Inhibition of IL-6/JAK/STAT3 signalling pathway in HEK-Blue IL-6 cells at 10 uM incubated for 16 hrs by QUANTI-blue assay relative to control; assay type: cell-based; settings: Homo sapiens
[4] = Inhibition of IL-6/JAK/STAT3 signalling pathway in HEK-Blue IL-6 cells incubated for 16 hrs by QUANTI-blue assay; assay type: cell-based; settings: Homo sapiens, HEK-Blue IL-6, 16 h
[5] = system: DU-145; assay: Antiproliferative activity against human DU-145 cells assessed as inhibition of cell growth at 10 uM measured after 96 hrs by MTT assay relative to control; assay type: functional
[6] = system: DU-145; assay: Antiproliferative activity against human DU-145 cells assessed as inhibition of cell growth measured after 96 hrs by MTT assay; assay type: functional, cell-based; settings: DU-145, 96 h
[7] = system: MDA-MB-231; assay: Antiproliferative activity against human MDA-MB-231 cells assessed as inhibition of cell growth at 10 uM measured after 96 hrs by MTT assay relative to control; assay type: functional
[8] = system: MDA-MB-231; assay: Antiproliferative activity against human MDA-MB-231 cells assessed as inhibition of cell growth measured after 96 hrs by MTT assay; assay type: functional, cell-based; settings: MDA-MB-231, 96 h
[9] = Metabolic stability in human liver microsomes at 10 uM measured after 120 mins in presence of NADPH-GS by HPLC-MS/MS analysis; assay type: ADME, Microsome; settings: read-out: Stability
[10] = Solubility of compound in water incubated for 10 mins; assay type: physicochemical

SMILES	half-life [1] [min]	microsomal CLint [2] [µL/min/mg]	inhibition [3] [%]	IC50 [4] [nM]	inhibition at 10 µM [5] [%]	IC50 [6] [nM]	inhibition at 10 µM [7] [%]	IC50 [8] [nM]	remaining at 2 h, 10 µM [9] [%]	solubility at 10 min [10] [µg/mL]
O=c1ccc2ccc(O)cc2o1 [UMBELLIFERONE]	1.54	902								
COc1cc(-c2nnc(Nc3cc4nc(-c5ccc(F)cc5)n(C5CC5)c4cc3N3CCN(C)CC3)s2)cc(OC)c1OC			95.7	4510	87.3	1050	92.5	820	32.5	5.95 (≈ 9.66 µM)
CCCn1c(-c2ccc(F)cc2)nc2cc(Nc3nnc(-c4cc(OC)c(OC)c(OC)c4)s3)c(N3CCN(C)CC3)cc21			108	2380	80.7	4420	94.5	800	25	
Fc1cc2c(cc1Nc1nnc(-c3cccc(C(F)(F)F)c3)s1)nc(-c1cccc(C(F)(F)F)c1)n2C1CC1			72.8	1530	-0.72	> 10000	4.54	> 10000		
